Measurements from US20230085307A1, “PYRIDAZINONE COMPOUND AND HERBICIDE” (NISSAN CHEMICAL CORPORATION, priority 2019, published 2023).

Tests used:
[1] = test system: Italian ryegrass; assay: Test Example 4: herbicidal effect by soil treatment (Table 19, symbol K); assay type: in vivo, Italian ryegrass (Lolium multiflorum); settings: amount of applied herbicide 320 g/ha
Method in brief: (§1)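 Applied as a water-diluted emulsion, the compound was sprayed onto soil covering newly sown seeds. Evaluation came three weeks after application, in a greenhouse held at 25° C. to 30° C.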

[2] = test system: late watergrass; assay: Test Example 1: herbicidal activity, application before weed generation under submerged conditions (Table 16, symbol A); assay type: in vivo, late watergrass (Echinochloa oryzicola); settings: amount of applied herbicide 320 g/ha
Method in brief: (§2)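 Alluvial soil was flooded to 4 cm depth, weed seeds were sown mixed and 2.5-leaf rice seedlings were transplanted. On sowing day, the compound's emulsion, diluted in water to a set dose, was applied to the water surface. Plants grew at 25–30 °C and were scored 0–5 after three weeks.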

[3] = test system: chickweed; assay: Test Example 5: herbicidal effect by foliage application, plastic box (Table 20, symbol P); assay type: in vivo, common chickweed (Stellaria media); settings: amount of applied herbicide 320 g/ha; foliage application after 14-day growth; evaluated three weeks after application
Method in brief: (§3)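 Sow seeds spot-wise in sterilized diluvial soil; cover with ~1.5 cm soil. Grow 14 days in greenhouse, 25° C. to 30° C. Spray foliage with emulsion diluted to predetermined amount. Rate effect after 3 weeks.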

[4] = test system: barnyard grass; assay: Test Example 3: herbicidal effect by foliage application, Wagner pot (Table 18, symbol H); assay type: in vivo, barnyard grass (Echinochloa crus-galli); settings: 320 g/ha
Method in brief: (§4)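 Plants were sown in alluvial soil held under 0.1–0.5 cm standing water and grown 14 days in a greenhouse at 25–30 °C. An emulsifiable formulation, water-diluted to the set dose, was then sprayed onto the foliage, and effects were scored three weeks later using previously defined criteria.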

[5] = test system: oval-leafed pondweed; assay: Test Example 1: herbicidal activity, application before weed generation under submerged conditions (Table 16, symbol C); assay type: in vivo, oval-leafed pondweed (Monochoria vaginalis); settings: amount of applied herbicide 320 g/ha
Method in brief: as §2

[6] = test system: southern crabgrass; assay: Test Example 5: herbicidal effect by foliage application, plastic box (Table 20, symbol F); assay type: in vivo, southern crabgrass (Digitaria ciliaris); settings: amount of applied herbicide 320 g/ha; foliage application after 14-day growth; evaluated three weeks after application
Method in brief: as §3

[7] = test system: windgrass; assay: Test Example 5: herbicidal effect by foliage application, plastic box (Table 20, symbol L); assay type: in vivo, windgrass (Apera spica-venti); settings: amount of applied herbicide 320 g/ha; foliage application after 14-day growth; evaluated three weeks after application
Method in brief: as §3

[8] = test system: barnyard grass; assay: Test Example 5: herbicidal effect by foliage application, plastic box (Table 20, symbol H); assay type: in vivo, barnyard grass (Echinochloa crus-galli); settings: amount of applied herbicide 320 g/ha; foliage application after 14-day growth; evaluated three weeks after application
Method in brief: as §3

[9] = test system: lambsquarters; assay: Test Example 4: herbicidal effect by soil treatment (Table 19, symbol O); assay type: in vivo, lambsquarters (Chenopodium album); settings: amount of applied herbicide 320 g/ha
Method in brief: as §1

[10] = test system: green foxtail; assay: Test Example 5: herbicidal effect by foliage application, plastic box (Table 20, symbol G); assay type: in vivo, green foxtail (Setaria viridis); settings: amount of applied herbicide 320 g/ha; foliage application after 14-day growth; evaluated three weeks after application
Method in brief: as §3

[11] = test system: Italian ryegrass; assay: Test Example 5: herbicidal effect by foliage application, plastic box (Table 20, symbol K); assay type: in vivo, Italian ryegrass (Lolium multiflorum); settings: amount of applied herbicide 320 g/ha; foliage application after 14-day growth; evaluated three weeks after application
Method in brief: as §3

[12] = test system: wild oat; assay: Test Example 4: herbicidal effect by soil treatment (Table 19, symbol I); assay type: in vivo, wild oat (Avena fatua); settings: amount of applied herbicide 320 g/ha
Method in brief: as §1

[13] = test system: velvetleaf; assay: Test Example 4: herbicidal effect by soil treatment (Table 19, symbol M); assay type: in vivo, velvetleaf (Abutilon theophrasti); settings: amount of applied herbicide 320 g/ha
Method in brief: as §1

[14] = test system: blackgrass; assay: Test Example 5: herbicidal effect by foliage application, plastic box (Table 20, symbol J); assay type: in vivo, blackgrass (Alopecurus myosuroides); settings: amount of applied herbicide 320 g/ha; foliage application after 14-day growth; evaluated three weeks after application
Method in brief: as §3

[15] = test system: persian speedwell; assay: Test Example 4: herbicidal effect by soil treatment (Table 19, symbol R); assay type: in vivo, Persian speedwell (Veronica persica); settings: amount of applied herbicide 320 g/ha
Method in brief: as §1

[16] = test system: windgrass; assay: Test Example 4: herbicidal effect by soil treatment (Table 19, symbol L); assay type: in vivo, windgrass (Apera spica-venti); settings: amount of applied herbicide 320 g/ha
Method in brief: as §1

[17] = test system: rice flat sedge; assay: Test Example 3: herbicidal effect by foliage application, Wagner pot (Table 18, symbol E); assay type: in vivo, rice flat sedge (Cyperus iria); settings: 320 g/ha
Method in brief: as §4

[18] = test system: Chinese sprangletop; assay: Test Example 3: herbicidal effect by foliage application, Wagner pot (Table 18, symbol D); assay type: in vivo, chinese sprangletop (Leptochloa chinensis); settings: 320 g/ha
Method in brief: as §4

[19] = test system: redroot pigweed; assay: Test Example 4: herbicidal effect by soil treatment (Table 19, symbol N); assay type: in vivo, redroot pigweed (Amaranthus retroflexus); settings: amount of applied herbicide 320 g/ha
Method in brief: as §1

[20] = test system: lambsquarters; assay: Test Example 5: herbicidal effect by foliage application, plastic box (Table 20, symbol O); assay type: in vivo, lambsquarters (Chenopodium album); settings: amount of applied herbicide 320 g/ha; foliage application after 14-day growth; evaluated three weeks after application
Method in brief: as §3

[21] = test system: persian speedwell; assay: Test Example 5: herbicidal effect by foliage application, plastic box (Table 20, symbol R); assay type: in vivo, Persian speedwell (Veronica persica); settings: amount of applied herbicide 320 g/ha; foliage application after 14-day growth; evaluated three weeks after application
Method in brief: as §3

[22] = test system: velvetleaf; assay: Test Example 5: herbicidal effect by foliage application, plastic box (Table 20, symbol M); assay type: in vivo, velvetleaf (Abutilon theophrasti); settings: amount of applied herbicide 320 g/ha; foliage application after 14-day growth; evaluated three weeks after application
Method in brief: as §3

[23] = test system: Japanese bulrush; assay: Test Example 1: herbicidal activity, application before weed generation under submerged conditions (Table 16, symbol B); assay type: in vivo, Japanese bulrush (Schoenoplectus juncoides); settings: amount of applied herbicide 320 g/ha
Method in brief: as §2

[24] = test system: wild oat; assay: Test Example 5: herbicidal effect by foliage application, plastic box (Table 20, symbol I); assay type: in vivo, wild oat (Avena fatua); settings: amount of applied herbicide 320 g/ha; foliage application after 14-day growth; evaluated three weeks after application
Method in brief: as §3

[25] = test system: southern crabgrass; assay: Test Example 4: herbicidal effect by soil treatment (Table 19, symbol F); assay type: in vivo, southern crabgrass (Digitaria ciliaris); settings: amount of applied herbicide 320 g/ha
Method in brief: as §1

[26] = test system: green foxtail; assay: Test Example 4: herbicidal effect by soil treatment (Table 19, symbol G); assay type: in vivo, green foxtail (Setaria viridis); settings: amount of applied herbicide 320 g/ha
Method in brief: as §1

[27] = test system: blackgrass; assay: Test Example 4: herbicidal effect by soil treatment (Table 19, symbol J); assay type: in vivo, blackgrass (Alopecurus myosuroides); settings: amount of applied herbicide 320 g/ha
Method in brief: as §1

[28] = test system: redroot pigweed; assay: Test Example 5: herbicidal effect by foliage application, plastic box (Table 20, symbol N); assay type: in vivo, redroot pigweed (Amaranthus retroflexus); settings: amount of applied herbicide 320 g/ha; foliage application after 14-day growth; evaluated three weeks after application
Method in brief: as §3

[29] = test system: chickweed; assay: Test Example 4: herbicidal effect by soil treatment (Table 19, symbol P); assay type: in vivo, common chickweed (Stellaria media); settings: amount of applied herbicide 320 g/ha
Method in brief: as §1

[30] = test system: barnyard grass; assay: Test Example 4: herbicidal effect by soil treatment (Table 19, symbol H); assay type: in vivo, barnyard grass (Echinochloa crus-galli); settings: amount of applied herbicide 320 g/ha
Method in brief: as §1

SMILES | Herbicidal effect by soil treatment, K: Italian ryegrass [1] | Herbicidal effect, A: late watergrass [2] | Herbicidal effect by foliage application, P: chickweed [3] | herbicidal effect on barnyard grass (H) [4] | Herbicidal effect, C: oval-leafed pondweed [5] | Herbicidal effect by foliage application, F: southern crabgrass [6] | Herbicidal effect by foliage application, L: windgrass [7] | Herbicidal effect by foliage application, H: barnyard grass [8] | Herbicidal effect by soil treatment, O: lambsquarters [9] | Herbicidal effect by foliage application, G: green foxtail [10] | Herbicidal effect by foliage application, K: Italian ryegrass [11] | Herbicidal effect by soil treatment, I: wild oat [12] | Herbicidal effect by soil treatment, M: velvetleaf [13] | Herbicidal effect by foliage application, J: blackgrass [14] | Herbicidal effect by soil treatment, R: persian speedwell [15] | Herbicidal effect by soil treatment, L: windgrass [16] | herbicidal effect on rice flat sedge (E) [17] | herbicidal effect on Chinese sprangletop (D) [18] | Herbicidal effect by soil treatment, N: redroot pigweed [19] | Herbicidal effect by foliage application, O: lambsquarters [20] | other results
COc1ccccc1-c1sc2c(C)cccc2c1-c1c(O)c(C)nn(C)c1=O [4-106] | 0 (Herbicidal rate of 5% or less (almost no effect)) | 2 (Herbicidal rate of 20% or more and less than 40%) | 5 (Herbicidal rate of 90% or more (almost completely withered)) | 4 (Herbicidal rate of 70% or more and less than 90%) | 0 (Herbicidal rate of 5% or less (almost no effect)) | 1 (Herbicidal rate of 5% or more and less than 20%) | 5 (Herbicidal rate of 90% or more (almost completely withered)) | 1 (Herbicidal rate of 5% or more and less than 20%) | 1 (Herbicidal rate of 5% or more and less than 20%) | 0 (Herbicidal rate of 5% or less (almost no effect)) | 4 (Herbicidal rate of 70% or more and less than 90%) | 0 (Herbicidal rate of 5% or less (almost no effect)) | 0 (Herbicidal rate of 5% or less (almost no effect)) | 4 (Herbicidal rate of 70% or more and less than 90%) | 1 (Herbicidal rate of 5% or more and less than 20%) | 3 (Herbicidal rate of 40% or more and less than 70%) | 5 (Herbicidal rate of 90% or more (almost completely withered)) | 0 (Herbicidal rate of 5% or less (almost no effect)) | 4 (Herbicidal rate of 70% or more and less than 90%) | 3 (Herbicidal rate of 40% or more and less than 70%) | Herbicidal effect by foliage application, R: persian speedwell [21]: 5 (Herbicidal rate of 90% or more (almost completely withered)); Herbicidal effect by foliage application, M: velvetleaf [22]: 3 (Herbicidal rate of 40% or more and less than 70%); Herbicidal effect, B: Japanese bulrush [23]: 0 (Herbicidal rate of 5% or less (almost no effect)); Herbicidal effect by foliage application, I: wild oat [24]: 2 (Herbicidal rate of 20% or more and less than 40%); Herbicidal effect by soil treatment, F: southern crabgrass [25]: 3 (Herbicidal rate of 40% or more and less than 70%); Herbicidal effect by soil treatment, G: green foxtail [26]: 1 (Herbicidal rate of 5% or more and less than 20%); Herbicidal effect by soil treatment, J: blackgrass [27]: 0 (Herbicidal rate of 5% or less (almost no effect)); Herbicidal effect by foliage application, N: redroot pigweed [28]: 4 (Herbicidal rate of 70% or more and less than 90%); Herbicidal effect by soil treatment, P: chickweed [29]: 1 (Herbicidal rate of 5% or more and less than 20%); Herbicidal effect by soil treatment, H: barnyard grass [30]: 0 (Herbicidal rate of 5% or less (almost no effect))
CSc1ccc(-c2sc3c(C)cccc3c2-c2c(O)c(C)nn(C)c2=O)cc1 [4-118] | 5 (Herbicidal rate of 90% or more (almost completely withered)) | 3 (Herbicidal rate of 40% or more and less than 70%) | 5 (Herbicidal rate of 90% or more (almost completely withered)) | 4 (Herbicidal rate of 70% or more and less than 90%) | 2 (Herbicidal rate of 20% or more and less than 40%) | 3 (Herbicidal rate of 40% or more and less than 70%) | 5 (Herbicidal rate of 90% or more (almost completely withered)) | 3 (Herbicidal rate of 40% or more and less than 70%) | 5 (Herbicidal rate of 90% or more (almost completely withered)) | 3 (Herbicidal rate of 40% or more and less than 70%) | 5 (Herbicidal rate of 90% or more (almost completely withered)) | 0 (Herbicidal rate of 5% or less (almost no effect)) | 3 (Herbicidal rate of 40% or more and less than 70%) | 5 (Herbicidal rate of 90% or more (almost completely withered)) | 4 (Herbicidal rate of 70% or more and less than 90%) | 0 (Herbicidal rate of 5% or less (almost no effect)) | 4 (Herbicidal rate of 70% or more and less than 90%) | 3 (Herbicidal rate of 40% or more and less than 70%) | 5 (Herbicidal rate of 90% or more (almost completely withered)) | 5 (Herbicidal rate of 90% or more (almost completely withered)) | Herbicidal effect by foliage application, R: persian speedwell [21]: 5 (Herbicidal rate of 90% or more (almost completely withered)); Herbicidal effect by foliage application, M: velvetleaf [22]: 5 (Herbicidal rate of 90% or more (almost completely withered)); Herbicidal effect, B: Japanese bulrush [23]: 2 (Herbicidal rate of 20% or more and less than 40%); Herbicidal effect by foliage application, I: wild oat [24]: 3 (Herbicidal rate of 40% or more and less than 70%); Herbicidal effect by soil treatment, F: southern crabgrass [25]: 0 (Herbicidal rate of 5% or less (almost no effect)); Herbicidal effect by soil treatment, G: green foxtail [26]: 0 (Herbicidal rate of 5% or less (almost no effect)); Herbicidal effect by soil treatment, J: blackgrass [27]: 0 (Herbicidal rate of 5% or less (almost no effect)); Herbicidal effect by foliage application, N: redroot pigweed [28]: 5 (Herbicidal rate of 90% or more (almost completely withered)); Herbicidal effect by soil treatment, P: chickweed [29]: 4 (Herbicidal rate of 70% or more and less than 90%); Herbicidal effect by soil treatment, H: barnyard grass [30]: 0 (Herbicidal rate of 5% or less (almost no effect))
